Experimental data taken from ChEMBL document CHEMBL1201862, “PubChem BioAssay data set” (2004).
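Tested at 5 concentrations; 48 h exposure; 96-well plates; endpoints linearly interpolated, else capped at highest concentration. At the GI50, growth is halved.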 Active and inactive are the calls of the source. Cut-off read from the data, not from the text of the source: active = GI50 up to about 1.1 µM and inactive = higher. Square brackets hold non-standard residues; d marks the D form. Peptide text beside a SMILES is read from it. * marks the point of attachment. Phe(4-NO2) = N[CH](Cc1ccc([N+](=O)[O-])cc1)C(=O)O; Cbz = O=C(OCc1ccccc1)*

Key:
Assay in all cases: NCI anticancer screen, dose series, 48 h
HCT-116 = test system: HCT-116
SK-MEL-2 = test system: SK-MEL-2
SNB-19 = test system: SNB-19
MDA-N = test system: MDA-N
SF-268 = test system: SF-268
HT-29 = test system: HT-29
MCF7 = test system: MCF7
SK-MEL-28 = test system: SK-MEL-28
NCI-H522 = test system: NCI-H522
OVCAR-3 = test system: OVCAR-3
OVCAR-8 = test system: OVCAR-8
SF-295 = test system: SF-295
SNB-75 = test system: SNB-75
NCI-H23 = test system: NCI-H23
PC-3 = test system: PC-3
OVCAR-4 = test system: OVCAR-4
T47D = test system: T47D
UACC-257 = test system: UACC-257
CCRF-CEM = test system: CCRF-CEM
UO-31 = test system: UO-31

Row | SMILES | GI50 (HCT-116) | GI50 (SK-MEL-2) | GI50 (SNB-19) | GI50 (MDA-N) | GI50 (SF-268) | GI50 (HT-29) | GI50 (MCF7) | GI50 (SK-MEL-28) | GI50 (NCI-H522) | GI50 (OVCAR-3) | GI50 (OVCAR-8) | GI50 (SF-295) | GI50 (SNB-75) | GI50 (NCI-H23) | GI50 (PC-3) | GI50 (OVCAR-4) | GI50 (T47D) | GI50 (UACC-257) | GI50 (CCRF-CEM) | GI50 (UO-31)
1 | CC(=O)Nc1ccc(-c2cc(C(=O)O)c3cc4ccccc4cc3n2)cc1 | > 100 µM (inactive) | > 100 µM (inactive) | > 100 µM (inactive) | > 100 µM (inactive) | > 100 µM (inactive) | > 100 µM (inactive) | > 100 µM (inactive) | > 100 µM (inactive) | > 100 µM (inactive) | > 100 µM (inactive) | > 100 µM (inactive) | > 100 µM (inactive) | > 100 µM (inactive) | > 100 µM (inactive) | > 100 µM (inactive) | > 100 µM (inactive) | > 100 µM (inactive) | > 100 µM (inactive) |  | 
2 | O=C(Oc1ccc2c(c1)CN(Cc1ccccc1)CO2)c1ccccc1 | 16 µM (inactive) | 22 µM (inactive) | 18.7 µM (inactive) | 16.8 µM (inactive) | 17.3 µM (inactive) | 18.5 µM (inactive) | 16.9 µM (inactive) | 21.4 µM (inactive) | 7.06 µM (inactive) | 15.4 µM (inactive) | 16.7 µM (inactive) | 17.8 µM (inactive) | 17.1 µM (inactive) | 15.8 µM (inactive) | 15.9 µM (inactive) | 15.7 µM (inactive) | 21.7 µM (inactive) | 15.1 µM (inactive) | 10.6 µM (inactive) | 17.7 µM (inactive)
3 | Clc1ccc(CSc2ncnc3c2ncn3C2CCCCO2)cc1 (stereo not given) | 20.8 µM (inactive) | 16.4 µM (inactive) | 34.8 µM (inactive) | 20.1 µM (inactive) | 23.3 µM (inactive) | 18.8 µM (inactive) | 26.6 µM (inactive) | 22.8 µM (inactive) | 13.8 µM (inactive) | 15.7 µM (inactive) | 22.9 µM (inactive) | 15.7 µM (inactive) | 20.2 µM (inactive) | 17.4 µM (inactive) | 25.6 µM (inactive) | 25.2 µM (inactive) | 17.4 µM (inactive) | 11.2 µM (inactive) |  | 1.88 µM (inactive)
4 | CS(=O)(=O)N(CC(=O)O)Cc1ccccc1 | > 100 µM (inactive) | > 100 µM (inactive) | > 100 µM (inactive) | > 100 µM (inactive) | > 100 µM (inactive) | > 100 µM (inactive) | > 100 µM (inactive) | > 100 µM (inactive) | > 100 µM (inactive) | > 100 µM (inactive) | > 100 µM (inactive) | > 100 µM (inactive) | > 100 µM (inactive) | > 100 µM (inactive) | > 100 µM (inactive) | > 100 µM (inactive) | > 100 µM (inactive) | > 100 µM (inactive) | > 100 µM (inactive) | 
5 | COc1ccc(/C=C2\CCC(Cc3ccccc3)(CN(C)C)C2=O)cc1 (stereo not given) | 28.8 µM (inactive) | 60.4 µM (inactive) | 51.4 µM (inactive) | 38.3 µM (inactive) | 69.5 µM (inactive) | 32.9 µM (inactive) | 41.8 µM (inactive) | > 72.9 µM (inactive) | 31.8 µM (inactive) | 43.7 µM (inactive) | 41.6 µM (inactive) | > 83.2 µM (inactive) | 94.2 µM (inactive) | 44 µM (inactive) | 83.9 µM (inactive) | 56.8 µM (inactive) | 46.7 µM (inactive) | 25.2 µM (inactive) | 27.9 µM (inactive) | 54.3 µM (inactive)
6 | CCOC(=O)C(NC(=O)c1ccccc1)(c1ccc(S(=O)(=O)Nc2onc(C)c2C)cc1)C(F)(F)F (stereo not given) | > 100 µM (inactive) | > 100 µM (inactive) | > 100 µM (inactive) | > 100 µM (inactive) | > 100 µM (inactive) | > 100 µM (inactive) | > 100 µM (inactive) | > 100 µM (inactive) |  | > 100 µM (inactive) | > 100 µM (inactive) | > 100 µM (inactive) | > 100 µM (inactive) | > 100 µM (inactive) | > 100 µM (inactive) | > 100 µM (inactive) | > 100 µM (inactive) | > 100 µM (inactive) | > 100 µM (inactive) | > 100 µM (inactive)
7 | OCCOCn1nncc1Cn1ncc2c(SCc3ccccc3)ncnc21 | 45.9 µM (inactive) | > 100 µM (inactive) | > 100 µM (inactive) | 54.7 µM (inactive) | > 100 µM (inactive) | 37.7 µM (inactive) | 49.3 µM (inactive) | > 100 µM (inactive) | 42.8 µM (inactive) | > 100 µM (inactive) | 64 µM (inactive) | > 100 µM (inactive) | 60.4 µM (inactive) | > 100 µM (inactive) | 94.8 µM (inactive) | 88.5 µM (inactive) | 80.2 µM (inactive) | > 100 µM (inactive) |  | 66.7 µM (inactive)
8 | Cc1[nH]c(=O)c2oc3cc4ccccc4cc3c2c1C(=O)O |  | > 10 µM (inactive) | > 10 µM (inactive) | > 10 µM (inactive) | > 10 µM (inactive) | > 10 µM (inactive) | > 10 µM (inactive) |  | > 10 µM (inactive) | > 10 µM (inactive) | > 10 µM (inactive) | 8.99 µM (inactive) | > 10 µM (inactive) | > 10 µM (inactive) | > 10 µM (inactive) | > 10 µM (inactive) | > 10 µM (inactive) | > 10 µM (inactive) |  | > 10 µM (inactive)
9 | CCC/N=C/c1cc(Cc2ccc(O)c(/C=N/CCC)c2)ccc1O | 2.37 µM (inactive) | 3 µM (inactive) | 2.7 µM (inactive) | 2.78 µM (inactive) | 3.8 µM (inactive) | 12.5 µM (inactive) | 2.36 µM (inactive) |  | 20.6 µM (inactive) | 2.91 µM (inactive) | 3.1 µM (inactive) | 12.9 µM (inactive) | 2.86 µM (inactive) | 6.46 µM (inactive) | 1.82 µM (inactive) | 5.47 µM (inactive) | 1.45 µM (inactive) | 19.1 µM (inactive) |  | 17.1 µM (inactive)
10 | COc1cccc(Nc2nc(C)c([N+](=O)[O-])c(Nc3cccc(OC)c3)n2)c1 | 26.6 µM (inactive) | 15.9 µM (inactive) | 89.1 µM (inactive) | 17.9 µM (inactive) | 40.4 µM (inactive) | 12.6 µM (inactive) | 2.24 µM (inactive) | 39.5 µM (inactive) | 8.18 µM (inactive) | 12.9 µM (inactive) | 5.74 µM (inactive) | < 0.01 µM (active) | 0.313 µM (active) | 16.2 µM (inactive) | 12.4 µM (inactive) |  | 2.05 µM (inactive) | 9.57 µM (inactive) |  | 9.27 µM (inactive)
11 | C=C1[C@H](OC(C)=O)[C@H]2[C@@H](OC(C)=O)[C@@H](C)C[C@]2(C)C(=O)[C@H](C)/C=C/C(C)(C)C(=O)[C@H](OCC(C)C)[C@H]1OC(C)=O | > 25 µM (inactive) | > 25 µM (inactive) | > 25 µM (inactive) | 14.4 µM (inactive) | > 25 µM (inactive) |  | > 25 µM (inactive) |  | > 25 µM (inactive) | > 25 µM (inactive) | > 25 µM (inactive) | 22.9 µM (inactive) | > 25 µM (inactive) | > 25 µM (inactive) | > 25 µM (inactive) | > 25 µM (inactive) | > 25 µM (inactive) | > 25 µM (inactive) | 20.2 µM (inactive) | > 25 µM (inactive)
12 | COc1cc2nc3n(c2cc1OC)C(O)c1c(Cl)nc(SC)nc1S3 (stereo not given) | 2.46 µM (inactive) | 2 µM (inactive) | 6.47 µM (inactive) | 3.36 µM (inactive) | 3.78 µM (inactive) | 3.22 µM (inactive) | 3.36 µM (inactive) | 6.19 µM (inactive) | 1.72 µM (inactive) | 3.12 µM (inactive) | 2.59 µM (inactive) | 7.4 µM (inactive) | 4.47 µM (inactive) | 4.21 µM (inactive) | 2.75 µM (inactive) | 5.77 µM (inactive) | 3.8 µM (inactive) | 13.1 µM (inactive) | 1.17 µM (inactive) | 2.99 µM (inactive)
13 | CC1OC(O)C(O)C(O)C1O (stereo not given) | > 100 µM (inactive) | > 100 µM (inactive) | > 100 µM (inactive) | > 100 µM (inactive) | > 100 µM (inactive) | > 100 µM (inactive) | > 100 µM (inactive) | > 100 µM (inactive) | > 100 µM (inactive) | > 100 µM (inactive) | > 100 µM (inactive) | > 100 µM (inactive) | > 100 µM (inactive) | > 100 µM (inactive) | > 100 µM (inactive) | > 100 µM (inactive) | > 100 µM (inactive) | > 100 µM (inactive) |  | > 100 µM (inactive)
14 | CCOC(=O)CCC(NC(=O)OCc1ccccc1)C(=O)NC(CCC(=O)OCC)C(=O)NC(CCC(=O)OCC)C(=O)NC(CCC(=O)OCC)C(=O)NC(CCC(=O)OCC)C(=O)NC(Cc1ccc([N+](=O)[O-])cc1)C(=O)NC(CCC(=O)OCC)C(=O)NC(CCC(=O)OCC)C(=O)NC(CCC(=O)OCC)C(=O)NC(CCC(=O)OCC)C(=O)NC(CCC(=O)OCC)C(=O)OCC (stereo not given) (Cbz-E(OEt)E(OEt)E(OEt)E(OEt)E(OEt)[Phe(4-NO2)]E(OEt)E(OEt)E(OEt)E(OEt)E(OEt)-OEt; configuration not given here) |  | > 50 µM (inactive) | > 50 µM (inactive) | > 50 µM (inactive) | > 50 µM (inactive) | > 50 µM (inactive) | > 50 µM (inactive) | > 50 µM (inactive) | > 50 µM (inactive) | > 50 µM (inactive) |  |  | > 50 µM (inactive) | > 50 µM (inactive) | > 50 µM (inactive) | 23 µM (inactive) | > 50 µM (inactive) |  | > 50 µM (inactive) | > 50 µM (inactive)
